Results on three compounds are retold here after patent publication US20240400508A1, “ALKYL-SUBSTITUTED DERIVATIVES OF […] ME[…] […] USES THEREOF” (Sensorium Therapeutics, Inc., priority 2022, published 2024).

As usually defined, the IC50 is the concentration that inhibits the measured activity by half. A low value points to greater potency. Usually inhibition stands for the relative decrease from the control value, in per cent.

One data set has as its target T1, SERT (Homo sapiens, UniProt P31645).
T1 construct: expressed in transfected cells
The data set can be described thus: SERT inhibition assay (Neurotransmitter Transportation Fluorescence assay). In kind it is cell-based. The note with it: stable 5HTT cells, assay of Example B1. As to the method: SERT inhibition was measured using a Neruotransmitter Transportation Fluorescence assay. Briefly, stable SHTT cells were prepared in a 384 microwell plate. Compounds were prepared in assay buffer (20 mM HEPES in HBSS, 0.1% BSA). The compounds were added to the plated cells and incubated for 30 minutes at 37° C. 25 μL of dye solution (Molecular Devices Neurotransmitter Transporter Uptake Assay Kit) was added per well and incubated for 30 minutes at 37° C. The plates were then read on a plate reader.

The target in a further data set is T2, PDE4A1A (Homo sapiens, UniProt P27815).
T2 construct: purchased BPS Bioscience
T2 sequence (P27815 1-647 isoform P27815-4): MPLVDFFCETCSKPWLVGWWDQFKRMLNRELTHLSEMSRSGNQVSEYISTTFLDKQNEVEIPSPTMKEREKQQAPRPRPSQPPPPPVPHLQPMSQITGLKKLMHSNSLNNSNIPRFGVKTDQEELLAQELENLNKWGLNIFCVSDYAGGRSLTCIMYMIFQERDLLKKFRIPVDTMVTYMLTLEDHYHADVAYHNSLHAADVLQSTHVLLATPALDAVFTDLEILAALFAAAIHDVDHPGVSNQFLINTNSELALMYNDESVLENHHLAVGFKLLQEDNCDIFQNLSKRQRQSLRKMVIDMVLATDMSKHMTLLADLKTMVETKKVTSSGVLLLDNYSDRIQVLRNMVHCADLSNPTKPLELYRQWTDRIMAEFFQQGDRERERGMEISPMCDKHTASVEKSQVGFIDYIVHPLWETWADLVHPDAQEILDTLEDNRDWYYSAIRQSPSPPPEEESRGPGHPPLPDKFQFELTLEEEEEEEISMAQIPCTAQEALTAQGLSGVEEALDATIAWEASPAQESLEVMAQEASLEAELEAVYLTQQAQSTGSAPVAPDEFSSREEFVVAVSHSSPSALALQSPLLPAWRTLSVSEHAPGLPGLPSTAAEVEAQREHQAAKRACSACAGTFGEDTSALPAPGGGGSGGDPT
The data set can be described thus: Recombinant PDE4 isoform inhibition assay (BPS Bioscience kit, fluorescence polarization). In kind it is biochemical. As to the method: (§1) Recombinant PDE assay inhibition can be measured according to the BPS Bioscience PDE4 assay kit, as described below.
(§2) • 1) Dilute 20 μM FAM-Cyclic-3′, 5′-AMP stock 100-fold with PDE buffer to make a 200 nM
(§3) • 2) Add 25 μl of FAM-Cyclic-3′,5′-AMP (200 nM) to each well designated “Positive Control”, “Test Inhibitor”, and “Substrate Control”. • 3) Add 20 μl of PDE assay buffer to each well designated “Substrate Control” and 45 μl of PDE assay buffer to each well designated “Blank”. • 4) Add 5 μl of inhibitor solution to each well designated “Test Inhibitor”. For the wells labeled “Positive Control”, “Substrate Control” and “Blank”, add 5 μl of the same solution without inhibitor (inhibitor buffer). • 5) Thaw PDE on ice. Upon first thaw, briefly spin tube containing enzyme to recover the full contents of the tube. • 6) Dilute PDE4 in PDE buffer to 7.5 pg/μl (0.15 ng/reaction)*. Initiate reaction by adding 20 μl of PDE4 (7.5 pg/μl) to the wells designated “Positive Control” and “Test Inhibitor.” • 7) Incubate at room temperature for 1 hour.
(§4) • 1) Mix binding agent thoroughly and dilute binding agent 1:100 with binding agent diluent. • 2) Add 100 μl diluted binding agent to each microwell. Incubate at room temperature for 1 hour with slow shaking. • 3) Read the fluorescent polarization of the sample in a microtiter-plate reader equipped for the measurement of fluorescence polarization, capable of excitation at wavelengths ranging from 485±5 nm and detection of emitted light ranging from 528±10 nm. Blank value is subtracted from all other values.
In general terms: Fluorescence polarisation rises when a labelled molecule tumbles more slowly, as on binding a larger partner.

A further data set has as its target T3, PDE4B2 (Homo sapiens, UniProt Q07343).
T3 construct: purchased BPS Bioscience
Described as above. In kind it is biochemical. As for the experimental part: as §1, §2, §3, §4

Another data set concerns the target T4, PDE4C1 (Homo sapiens, UniProt Q08493).
T4 construct: purchased BPS Bioscience
Described as above. The data set is classed as biochemical. As to the method: as §1, §2, §3, §4

The next data set addresses T5, PDE4D2 (Homo sapiens, UniProt Q08499).
T5 construct: purchased BPS Bioscience
The description is as above. The data set is classed as biochemical. As to the method:
as §1, §2, §3, §4

The conditions of data set [1]: cited from earlier work.

T5 sequence (Q08499 303-809 limits assumed): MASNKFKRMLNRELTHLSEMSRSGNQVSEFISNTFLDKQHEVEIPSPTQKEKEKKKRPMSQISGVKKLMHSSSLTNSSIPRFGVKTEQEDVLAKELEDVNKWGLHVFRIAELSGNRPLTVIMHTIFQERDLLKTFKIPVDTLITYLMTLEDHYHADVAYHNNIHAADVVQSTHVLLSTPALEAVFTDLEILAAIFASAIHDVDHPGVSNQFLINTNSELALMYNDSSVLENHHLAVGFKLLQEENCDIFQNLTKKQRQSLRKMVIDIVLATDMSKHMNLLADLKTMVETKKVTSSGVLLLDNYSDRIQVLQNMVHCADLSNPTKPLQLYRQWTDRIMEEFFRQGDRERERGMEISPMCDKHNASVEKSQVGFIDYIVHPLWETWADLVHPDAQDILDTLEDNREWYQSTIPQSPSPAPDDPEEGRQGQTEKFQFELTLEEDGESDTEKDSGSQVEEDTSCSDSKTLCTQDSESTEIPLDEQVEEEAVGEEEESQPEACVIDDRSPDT
T3 sequence (Q07343 1-564 isoform Q07343-2): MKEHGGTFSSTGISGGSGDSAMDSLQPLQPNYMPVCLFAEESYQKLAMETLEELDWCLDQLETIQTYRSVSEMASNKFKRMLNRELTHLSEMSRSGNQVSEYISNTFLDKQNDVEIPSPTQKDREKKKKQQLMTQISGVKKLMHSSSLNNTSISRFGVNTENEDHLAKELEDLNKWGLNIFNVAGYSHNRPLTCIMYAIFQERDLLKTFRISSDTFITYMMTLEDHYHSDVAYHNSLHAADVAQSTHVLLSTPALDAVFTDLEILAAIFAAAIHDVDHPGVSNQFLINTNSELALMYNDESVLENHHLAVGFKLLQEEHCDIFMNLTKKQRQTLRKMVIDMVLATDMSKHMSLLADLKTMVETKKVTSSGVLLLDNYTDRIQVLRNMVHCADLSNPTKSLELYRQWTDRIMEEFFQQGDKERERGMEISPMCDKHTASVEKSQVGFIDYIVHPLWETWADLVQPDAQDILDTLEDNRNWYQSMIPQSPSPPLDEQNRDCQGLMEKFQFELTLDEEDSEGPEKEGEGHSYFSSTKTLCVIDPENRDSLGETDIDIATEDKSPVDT
T1 sequence (P31645 whole entry, species assumed): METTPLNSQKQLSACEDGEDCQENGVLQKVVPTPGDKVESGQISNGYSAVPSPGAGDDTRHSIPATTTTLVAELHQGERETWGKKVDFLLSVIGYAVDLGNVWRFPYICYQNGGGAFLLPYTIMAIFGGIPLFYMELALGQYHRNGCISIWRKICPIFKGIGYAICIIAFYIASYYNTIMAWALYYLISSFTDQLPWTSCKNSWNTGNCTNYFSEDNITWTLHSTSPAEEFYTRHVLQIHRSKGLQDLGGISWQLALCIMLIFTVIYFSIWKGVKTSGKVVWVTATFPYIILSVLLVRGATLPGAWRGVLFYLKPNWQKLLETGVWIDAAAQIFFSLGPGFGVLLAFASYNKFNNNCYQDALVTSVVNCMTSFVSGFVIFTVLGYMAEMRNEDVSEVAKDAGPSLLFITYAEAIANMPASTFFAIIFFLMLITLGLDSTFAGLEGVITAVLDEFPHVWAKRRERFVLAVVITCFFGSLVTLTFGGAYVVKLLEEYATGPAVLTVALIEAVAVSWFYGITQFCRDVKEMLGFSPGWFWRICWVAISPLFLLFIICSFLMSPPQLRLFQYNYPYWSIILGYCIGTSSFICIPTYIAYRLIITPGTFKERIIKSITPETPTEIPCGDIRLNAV
T4 sequence (Q08493 whole entry): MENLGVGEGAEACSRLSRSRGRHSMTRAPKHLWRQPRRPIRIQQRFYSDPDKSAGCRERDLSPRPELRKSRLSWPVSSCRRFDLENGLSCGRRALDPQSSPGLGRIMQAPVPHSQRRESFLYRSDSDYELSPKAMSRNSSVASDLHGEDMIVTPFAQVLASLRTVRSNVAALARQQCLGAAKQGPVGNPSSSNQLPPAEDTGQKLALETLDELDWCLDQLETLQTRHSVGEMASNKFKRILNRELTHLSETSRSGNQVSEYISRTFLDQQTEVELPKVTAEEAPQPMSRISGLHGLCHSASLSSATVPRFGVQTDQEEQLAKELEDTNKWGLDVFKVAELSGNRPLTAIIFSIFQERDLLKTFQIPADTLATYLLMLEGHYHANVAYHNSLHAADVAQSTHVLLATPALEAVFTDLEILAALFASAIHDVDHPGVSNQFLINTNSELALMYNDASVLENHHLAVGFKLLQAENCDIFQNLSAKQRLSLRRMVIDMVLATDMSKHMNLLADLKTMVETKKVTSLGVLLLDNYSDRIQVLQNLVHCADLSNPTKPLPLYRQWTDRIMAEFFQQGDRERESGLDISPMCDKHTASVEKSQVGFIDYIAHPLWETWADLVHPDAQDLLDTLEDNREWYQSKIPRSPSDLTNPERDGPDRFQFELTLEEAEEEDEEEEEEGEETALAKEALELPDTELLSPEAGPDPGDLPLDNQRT

Turning to `COc1ccc([C@]23CCN(C)[C@H]2CC(=O)C[C@H]3C)cc1OC` (single isomer, unassigned) [Compound 102], the IC50 on SERT is < 250 nM. Moreover, the inhibition at 10 µM on PDE4A1A, on PDE4B2, on PDE4C1 and at PDE4D2 was < 20% each time.
`COc1ccc([C@@]23CCN(C)[C@@H]2CC(=O)C[C@@H]3C)cc1OC` (single isomer, unassigned) [Compound 103]: the IC50 on SERT was < 250 nM. Further, the inhibition at 10 µM on PDE4A1A, on PDE4B2, on PDE4C1 and on PDE4D2 was < 20% in each case.
Turning to `COc1ccc([C@@]23CCC(=O)C[C@@H]2N(C)CC3)cc1OC` [(−) mesembrine], the half-life in plasma entry in data set [1] was “less than 2 hours”.
